Test results taken from patent US7932272B2, “Antifungal agent containing heterocyclic compound” (Eisai R&D Management Co., Ltd., priority 2003, dated 2011).
In brackets after ≈: the same amount, converted by molar mass.

Columns and labels:
[1] = tested on: C. albicans E81022 strain; assay: Anti-Candida activity (MIC measurement); type: cell-based; conditions: E81022STRAIN, MIC by visual inspection, C. albicans E81022, 48 hours at 30 to 35° C.
Protocol: (§1) For the C. albicans E81022 strain, a fungal suspension from a standing culture for 48 hours at 30° C. in a Sabouraud dextrose liquid culture medium (SDB) was diluted 10,000-fold with a 1.3-fold concentrated SDB to adjust to a fungal suspension of 1 to 2×10^4 cells/ml. For the A. fumigatus Tsukuba strain, −80° C. stored strain was diluted 1,000-fold with a 1.3-fold concentrated SDB to adjust to a fungal suspension of 2 to 3×10^3 cells/ml.
(§2) Using a U-bottomed 96 well plate, 8 samples/plate (A to H) of sample dilution solutions were prepared. On the 3rd row of each plate was dispensed 240 μl of sterilized and distilled water, and on the 2nd and 4th to 12th rows were dispensed 125 μl of 4% dimethylsulfoxide solution. Weighed sample was dissolved in dimethylsulfoxide to prepare a 2.5 to 20 mg/ml solution, 10 μl of this solution was then added to the 3rd row of the prepared plate, and 10 steps of two-fold step dilutions (125 μl of solution+125 μl of 4% dimethylsulfoxide) were performed on the plate.
(§3) The fungal suspension preprared in (1) was used in the amount of 75 μl/well to inoculate a V-bottomed or flat-bottomed 96 well plate containing 25 μl/well of test compound dilution solution prepared in (2), and a standing culture was carried out aerobically for 48 hours at 30 to 35° C.

[2] = tested on: A. fumigatus Tsukuba strain; assay: Anti-Aspergillus activity (MIC measurement); type: cell-based; conditions: MIC by visual inspection, 48 hours at 30 to 35° C.
Protocol: as §1, §2, §3

[3] = tested on: C. albicans E81022 strain; assay: Experimental systemic candida infection model in mice; type: in vivo, female ICR mice; conditions: C. albicans i.v. infection, 2.5 mg/kg peroral 3 times every 4 hours, observed until 14 days after infection
Protocol: A standing culture of C. albicans E81022 strain was carried out for 48 hours at 30° C. in Sabouraud dextrose agar medium (SDA), the recovered fungal cells were suspended in sterilized physiological saline. By counting the fungal number on a cytometry plate, the suspension was diluted to 2×10^7 cells/ml with sterilized physiological saline to serve as fungal inoculum.
The fungal inoculum was used in the amounts of 0.2 ml to inoculate 4.5 to 5.5 week-old female ICR mice in the tail vein (4×10^6 cells/mouse).
From 0.5 to 1 hour after fungal inoculation, 0.2 ml of agent solution (dissolved or suspended in sterilized physiological saline containing 6.5% dimethylsulfoxide and 3.5% Tween 80) was administered into the stomach using a peroral probe, 3 times every 4 hours. The agent concentration was 2.5 mg/kg, and the number of animals in one group was 5 animals.
(§4) The protective effect was determined by observing life/death until 14 days after infection and calculating the mean survival days.

[4] = tested on: A. fumigatus Tsukuba strain; assay: Experimental respiratory aspergillus infection model in mice; type: in vivo, female DBA/2N mice; conditions: 5-fluorouracil-treated mice, A. fumigatus nasal infection, 20 or 40 mg/kg peroral 3 times per day for 3 days, observed until 14 days after infection
Protocol: In order to increase susceptibility of the mice to infection, 200 mg/kg of 5-fluorouracil was administered subcutaneously 6 days prior to infection.
A. fumigatus Tsukuba strain was used.
A spore suspension of the infection strain was used to coat a potato dextrose agar medium (PDA), a standing culture was carried out for 4 to 7 days at 35° C., spore was then suspended in a sterilized physiological saline containing 0.05% Tween 80. By counting the pore count on a cytometry plate, the suspension was diluted to 6×10^5 cells/ml with sterilized physiological saline containing 0.05% Tween 80 to serve as fungal inoculum.
Under ketalar anesthesia, 50 μl of fungal inoculum was used to inoculate 8 to 9 week-old female DBA/2N mice in the nose (3×10^4 cells/mouse).
From 1 hour after fungal inoculation, 0.2 ml of agent solution (dissolved or suspended in sterilized physiological saline containing 6.5% DMSO and 3.5% Tween 80), was administered into the stomach using a peroral probe 3 times per day for 3 days. The agent dosage was from 20 or 40 mg/kg, and the number of animals in one group was 5 animals.
as §4

SMILES | MIC [1] | MIC [2] | Mean Survival Days [3] | Mean Survival Days [4]
Nc1ccc(C(=O)NCc2ccc(OCc3ccccc3)cc2)c(N)n1 [Example A-10, 2,6-Diamino-N-(4-benzyloxy-benzyl)-nicotinamide] | 0.78 µg/mL (≈ 2.24 µM) | 1.56 µg/mL (≈ 4.48 µM) | 12.5 days | –
Nc1ccc(C(=O)NCc2ccc(OCc3ccccc3F)cc2)c(N)n1 [Example A-11, 2,6-Diamino-N-(4-(2-fluoro-benzyloxy)-benzyl)-nicotinamide] | – | – | – | 10.4 days
COCc1ccc(C(=O)NCc2ccc(OCc3ccccn3)cc2)c(N)n1 [Example A-31, 2-Amino-6-methoxymethyl-N-(4-(pyridin-2-ylmethoxy)-benzyl)-nicotinamide] | – | – | – | 11.2 days
COCc1ccc(C(=O)NCc2ccc(OCc3ccc(F)cc3)cc2)c(N)n1 [Example A-32, 2-Amino-N-(4-(4-fluoro-benzyloxy)-benzyl)-6-methoxymethyl-nicotinamide] | – | – | – | 11.8 days
Nc1ccc(C(=O)NCc2ccc(Oc3ccc(F)cc3)s2)c(N)n1 [Example A-53, 2,6-Diamino-N-(5-(4-fluoro-phenoxy)-thiophen-2-ylmethyl)-nicotinamide] | 0.39 µg/mL (≈ 1.09 µM) | 0.78 µg/mL (≈ 2.18 µM) | 13.4 days | –
Nc1ccc(C(=O)NCc2ccc(Oc3ccccc3)s2)c(N)n1 [Example A-54, 2,6-diamino-N-(5-phenoxy-thiophene-2-ylmethyl)-nicotinamide] | 0.78 µg/mL (≈ 2.29 µM) | 1.56 µg/mL (≈ 4.58 µM) | 10.0 days | –
Nc1ccc(C(=O)NCc2ccc(Cc3ccccc3)s2)c(N)n1 [Example A-55, 2,6-Diamino-N-(5-benzyl-thiophen-2-ylmethyl)-nicotinamide] | – | – | – | 12.6 days
Nc1ccc(C(=O)NCc2ccc(OCc3ccccc3)s2)c(N)n1 [Example A-56, 2,6-Diamino-N-(5-benzyloxy-thiophen-2-ylmethyl)-nicotinamide] | – | – | – | 10.8 days
Nc1ncccc1C(=O)NCc1ccc(Oc2cccc(F)c2)s1 [Example A-68, 2-Amino-N-(5-(3-fluoro-phenoxy)-thiophen-2-ylmethyl)-nicotinamide] | 0.05 µg/mL (≈ 0.146 µM) | 0.78 µg/mL (≈ 2.27 µM) | 10.6 days | –
Nc1ncccc1C(=O)NCc1ccc(Cc2ccccc2)s1 [Example A-70, 2-Amino-N-(5-benzyl-thiophen-2-ylmethyl)-nicotinamide] | 0.05 µg/mL (≈ 0.155 µM) | 0.78 µg/mL (≈ 2.41 µM) | 12.6 days | –
Nc1ccc(C(=O)NCc2ccc(Oc3cccc(F)c3)s2)cn1 [Example A-137, 6-Amino-N-(5-(3-fluorophenoxy)thiophen-2-ylmethyl)nicotinamide] | 1.56 µg/mL (≈ 4.54 µM) | – | 12.8 days | –
O=C(NCc1ccn(Cc2cccc(F)c2)c1)c1ccc2ncccc2n1 [Example D-4, [1,5]Naphthylidine-2-carboxylic acid (1-(3-fluoro-benzyl)-1H-pyrrol-3-ylmethyl)-amide] | – | – | – | 10.8 days
O=C(NCc1ccc(Oc2ccc(F)cc2)s1)c1ccc2ncccc2n1 [Example D-7, [1,5]Naphthylidine-2-carboxylic acid (5-(4-fluoro-phenoxy)-thiophen-2-ylmethyl)-amide] | – | – | – | 10.6 days
O=C(NCc1ccc(Oc2cccc(F)c2)s1)c1ccc2ncccc2c1 [Example E-65, Quinoline-6-carboxylic acid (5-(3-fluorophenoxy)thiophen-2-ylmethyl) amide] | 0.1 µg/mL (≈ 0.264 µM) | 1.56 µg/mL (≈ 4.12 µM) | 11.6 days | –
Cc1ccc(Cc2ccc(CNC(=O)c3ccc4ncccc4c3)s2)s1 [Example E-73, Quinoline-6-carboxylic acid (5-(5-methyl-thiophen-2-ylmethyl)-thiophen-2-ylmethyl)-amide] | 0.2 µg/mL (≈ 0.528 µM) | 0.78 µg/mL (≈ 2.06 µM) | – | –
O=C(NCc1cccc(Oc2ccccc2)c1)c1ccc2nccnc2c1 [Example I-1, Quinoxaline-6-carboxylic acid 3-phenoxybenzylamide] | 0.78 µg/mL (≈ 2.19 µM) | 1.56 µg/mL (≈ 4.39 µM) | – | –
Cc1nc2ccc(C(=O)NCc3cccc(Oc4ccccc4)c3)cc2o1 [Example K-1, 2-Methyl-benzoxazole-6-carboxylic acid 3-phenoxybenzylamide] | 0.78 µg/mL (≈ 2.18 µM) | 1.56 µg/mL (≈ 4.35 µM) | – | –
O=C(NCc1ccc(OCc2cccc(F)c2)cc1)c1ccc2ncsc2c1 [Example L-4, Benzothiazole-6-carboxylic acid 4-(3-fluoro-benzyloxy)-benzylamide] | 0.2 µg/mL (≈ 0.51 µM) | 0.2 µg/mL (≈ 0.51 µM) | – | –
O=C(NCc1ccc(Oc2ccccc2)s1)c1ccc2ncsc2c1 [Example L-7, Benzothiazole-6-carboxylic acid (5-phenoxythiophen-2-ylmethyl)-amide] | 0.1 µg/mL (≈ 0.273 µM) | 0.78 µg/mL (≈ 2.13 µM) | – | –
O=C(NCc1cccc(Oc2ccccc2)c1)c1ccc2nsnc2c1 [Example M-1, Benzo[1,2 5]thiadiazole-5-carboxylic acid 3-phenoxybenzylamide] | 1.56 µg/mL (≈ 4.32 µM) | 1.56 µg/mL (≈ 4.32 µM) | – | –
O=C(NCc1ccc(Oc2ccccc2)s1)c1ccc2nccn2c1 [Example Q-7, Imidazo[1,2-a]pyridine-6-carboxylic acid (5-phenoxy-thiophen-2-ylmethyl)-amide] | 0.39 µg/mL (≈ 1.12 µM) | 6.25 µg/mL (≈ 17.9 µM) | – | –
O=C(NCc1ccc(Oc2ccccc2)s1)c1cnc2[nH]ccc2c1 [Example R-1, 1H-Pyrrolo[2,3-b]pyridine-5-carboxylic acid (5-phenoxy-thiophen-2-ylmethyl)-amide] | 0.39 µg/mL (≈ 1.12 µM) | 3.13 µg/mL (≈ 8.96 µM) | 10.4 days | –
O=C(NCc1ccc(Oc2ccccc2)s1)c1cnc2ccsc2c1 [Example U-2, Thieno[3,2-b]pyridine-6-carboxylic acid (5-phenoxy-thiophen-2-yl methyl)-amide] | 0.78 µg/mL (≈ 2.13 µM) | 3.13 µg/mL (≈ 8.54 µM) | – | –
c1ccc(COc2ccc(NCc3ccc4ncccc4c3)cc2)cc1 [Example W-1, (4-Benzyloxy-phenyl)-quinolin-6-ylmethyl-amine] | 0.39 µg/mL (≈ 1.15 µM) | 0.78 µg/mL (≈ 2.29 µM) | – | –
c1ccc(COc2ccc(CNc3ccc4ncccc4c3)cc2)cc1 [Example W-2, (4-Benzyloxy-benzyl)-quinolin-6-yl-amine] | 1.56 µg/mL (≈ 4.58 µM) | 0.78 µg/mL (≈ 2.29 µM) | – | –
Nc1nc(NCc2ccc(OCc3ccccc3)cc2)c2cccnc2n1 [Example Y-1, N*4*-(4-Benzyloxy-benzyl)-pyrido[2,3-d]pyrimidine-2,4-diamine] | 0.78 µg/mL (≈ 2.18 µM) | 6.25 µg/mL (≈ 17.5 µM) | – | –
